# From ChEMBL document CHEMBL1201862, “PubChem BioAssay data set” (2004)
#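 Compound exposure: 48 hours, 5 concentrations, 96-well plates. GI50 = concentration required for 50% inhibition of growth.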 Calls of active or inactive are those of the source. No stated cut-off is given here; in the data, active = GI50 up to about 1.1 µM and inactive = higher.
# Assays:
# Assay in all cases: growth of human tumour cells (NCI), 48 h
# [1] = tested on: OVCAR-4
# [2] = tested on: MOLT-4
# [3] = tested on: OVCAR-3
# [4] = tested on: HOP-62
# [5] = tested on: A549
# [6] = tested on: HOP-92
# [7] = tested on: K562
# [8] = tested on: SF-295
# [9] = tested on: TK-10
# [10] = tested on: MCF7
# [11] = tested on: IGROV-1
# [12] = tested on: SK-MEL-2
# [13] = tested on: Hs-578T
# [14] = tested on: PC-3
# [15] = tested on: KM12
# [16] = tested on: RXF 393
# [17] = tested on: SNB-19
# [18] = tested on: ACHN
# [19] = tested on: NCI-H23
# [20] = tested on: MDA-N
Compound,GI50 [1],GI50 [2],GI50 [3],GI50 [4],GI50 [5],GI50 [6],GI50 [7],GI50 [8],GI50 [9],GI50 [10],GI50 [11],GI50 [12],GI50 [13],GI50 [14],GI50 [15],GI50 [16],GI50 [17],GI50 [18],GI50 [19],GI50 [20]
O=[N+]([O-])c1cccnc1-n1cnc2ccccc21,> 100 µM (inactive),> 100 µM (inactive),54.6 µM (inactive),> 100 µM (inactive),> 100 µM (inactive),> 100 µM (inactive),> 100 µM (inactive),> 100 µM (inactive),> 100 µM (inactive),> 100 µM (inactive),> 100 µM (inactive),> 100 µM (inactive),> 100 µM (inactive),> 100 µM (inactive),> 100 µM (inactive),> 100 µM (inactive),,,,
O=C(c1ccco1)N(C(=S)N1CCN(c2ccccc2)CC1)C1CCCCC1,> 100 µM (inactive),> 100 µM (inactive),> 100 µM (inactive),> 100 µM (inactive),67.1 µM (inactive),> 100 µM (inactive),> 100 µM (inactive),79.8 µM (inactive),> 100 µM (inactive),,> 100 µM (inactive),> 100 µM (inactive),,,> 100 µM (inactive),52.6 µM (inactive),> 100 µM (inactive),> 100 µM (inactive),> 100 µM (inactive),
CCN(CC)CC(=O)Nc1c(C(N)=O)nnn1Cc1cc(Cl)c(C(=O)c2ccc(Cl)cc2)c(Cl)c1,31 µM (inactive),16.3 µM (inactive),16.9 µM (inactive),18.6 µM (inactive),22.3 µM (inactive),20.7 µM (inactive),17.3 µM (inactive),17.4 µM (inactive),22.8 µM (inactive),17.1 µM (inactive),21.4 µM (inactive),14.9 µM (inactive),14.3 µM (inactive),16.8 µM (inactive),18.8 µM (inactive),10.4 µM (inactive),34.9 µM (inactive),29.7 µM (inactive),14.6 µM (inactive),
C/C(=N\N)C(CN1CCCCC1)C(c1ccccc1)c1c(O)c2ccccc2oc1=O (stereo not drawn),> 100 µM (inactive),> 69.2 µM (inactive),> 100 µM (inactive),> 100 µM (inactive),> 100 µM (inactive),67 µM (inactive),> 100 µM (inactive),> 100 µM (inactive),> 100 µM (inactive),> 100 µM (inactive),> 100 µM (inactive),> 100 µM (inactive),> 100 µM (inactive),> 100 µM (inactive),> 100 µM (inactive),> 54.1 µM (inactive),> 100 µM (inactive),> 100 µM (inactive),> 100 µM (inactive),
Cc1nc(C(N)=S)sc1C(=O)CC(=O)C(=O)Nc1nc2ccccc2[nH]1,> 100 µM (inactive),> 100 µM (inactive),> 100 µM (inactive),> 100 µM (inactive),> 100 µM (inactive),69.5 µM (inactive),> 100 µM (inactive),> 100 µM (inactive),> 100 µM (inactive),> 100 µM (inactive),> 100 µM (inactive),> 100 µM (inactive),> 100 µM (inactive),> 100 µM (inactive),> 100 µM (inactive),> 100 µM (inactive),,> 100 µM (inactive),> 100 µM (inactive),
COC(=O)c1c(C)cc2c(c1O)C1(O)C(=O)c3cc4c(c(O)c3C(=O)C1(OC)C(O)C2)C(=O)C=C(NC1OC(C)C(OC)C(O)C1OC)C4=O (stereo not drawn),0.0687 µM (active),0.0208 µM (active),0.11 µM (active),0.277 µM (active),0.0619 µM (active),0.26 µM (active),0.0204 µM (active),0.0331 µM (active),0.114 µM (active),,0.0134 µM (active),0.0284 µM (active),,,0.129 µM (active),0.0161 µM (active),0.159 µM (active),0.0681 µM (active),0.0152 µM (active),
COc1cc(CCc2ccc(N)cc2)cc(OC)c1OC,63.5 µM (inactive),36.9 µM (inactive),41.1 µM (inactive),> 42.7 µM (inactive),51.6 µM (inactive),35.4 µM (inactive),46.1 µM (inactive),12.2 µM (inactive),> 74.3 µM (inactive),,> 86.9 µM (inactive),27.8 µM (inactive),,,18.7 µM (inactive),50.9 µM (inactive),> 100 µM (inactive),> 100 µM (inactive),92.3 µM (inactive),
O=C(Cn1c(C(=O)c2ccccc2)nc2ccccc21)c1ccccc1,96.8 µM (inactive),> 100 µM (inactive),> 100 µM (inactive),26.5 µM (inactive),> 96.4 µM (inactive),70.5 µM (inactive),,67 µM (inactive),> 100 µM (inactive),> 100 µM (inactive),> 31.6 µM (inactive),> 100 µM (inactive),30.5 µM (inactive),> 72.4 µM (inactive),> 100 µM (inactive),> 100 µM (inactive),> 100 µM (inactive),> 100 µM (inactive),> 100 µM (inactive),
COC[C@H]1OC(=O)c2coc3c2[C@@]1(C)C1=C(C3=O)[C@@H]2CCC(=O)[C@@]2(C)C[C@H]1OC(C)=O [WORTMANNIN],,2.09 µM (inactive),4.65 µM (inactive),3.05 µM (inactive),6.56 µM (inactive),,37.2 µM (inactive),2.96 µM (inactive),11.9 µM (inactive),5.66 µM (inactive),1.28 µM (inactive),2.21 µM (inactive),,0.598 µM (active),11.5 µM (inactive),,6.38 µM (inactive),13.6 µM (inactive),35.7 µM (inactive),15.1 µM (inactive)
O=C(CSCC(=O)N/N=C\c1cccc(Br)c1)N/N=C\c1cccc(Br)c1,20.1 µM (inactive),21.3 µM (inactive),13.4 µM (inactive),17.4 µM (inactive),14.1 µM (inactive),18.9 µM (inactive),18.2 µM (inactive),14.9 µM (inactive),11.6 µM (inactive),33.1 µM (inactive),17.1 µM (inactive),22.9 µM (inactive),18.2 µM (inactive),14.5 µM (inactive),15 µM (inactive),20.3 µM (inactive),46.5 µM (inactive),13.6 µM (inactive),14.6 µM (inactive),
COc1ccc2c3c([nH]c2c1)CCN(Cc1ccccc1)C3,62.8 µM (inactive),24.8 µM (inactive),,21.8 µM (inactive),62.1 µM (inactive),4.35 µM (inactive),21.4 µM (inactive),11.5 µM (inactive),24.4 µM (inactive),17.5 µM (inactive),73.6 µM (inactive),,24.6 µM (inactive),,22 µM (inactive),18.3 µM (inactive),21.4 µM (inactive),31.3 µM (inactive),42.3 µM (inactive),
O=C(NC1C(=O)NNC1c1ccccc1Cl)c1ccccc1 (stereo not drawn),> 100 µM (inactive),64.4 µM (inactive),> 100 µM (inactive),> 100 µM (inactive),> 100 µM (inactive),> 100 µM (inactive),39.4 µM (inactive),> 100 µM (inactive),> 100 µM (inactive),,> 100 µM (inactive),> 100 µM (inactive),,,> 100 µM (inactive),> 100 µM (inactive),> 100 µM (inactive),> 100 µM (inactive),> 100 µM (inactive),
CCCCCCCCCc1cc(-c2ccc(C=O)s2)sc1-c1ccc(C=O)s1,24.4 µM (inactive),1.12 µM (inactive),16.7 µM (inactive),27.7 µM (inactive),53.1 µM (inactive),27.9 µM (inactive),3.56 µM (inactive),32.7 µM (inactive),6.47 µM (inactive),14.3 µM (inactive),21 µM (inactive),25.5 µM (inactive),17.9 µM (inactive),37.8 µM (inactive),36.6 µM (inactive),8.81 µM (inactive),22.6 µM (inactive),30.7 µM (inactive),20.1 µM (inactive),
N#C/C(=C\c1ccc(O)c(O)c1)C(N)=O,67.1 µM (inactive),12.5 µM (inactive),28.2 µM (inactive),51.2 µM (inactive),46.2 µM (inactive),49.9 µM (inactive),34.6 µM (inactive),39.1 µM (inactive),77.6 µM (inactive),,76.4 µM (inactive),> 100 µM (inactive),,,33.1 µM (inactive),19.7 µM (inactive),38.5 µM (inactive),41.6 µM (inactive),34 µM (inactive),
CCCCNC(=S)Nc1nc(C(=O)NNC(=S)NCC)cs1,73.1 µM (inactive),50.4 µM (inactive),44 µM (inactive),> 100 µM (inactive),> 100 µM (inactive),,,> 100 µM (inactive),> 100 µM (inactive),> 100 µM (inactive),78.5 µM (inactive),> 100 µM (inactive),,> 100 µM (inactive),76.9 µM (inactive),,,31.6 µM (inactive),> 100 µM (inactive),82 µM (inactive)
CC(=O)C1C(=O)C(=O)N(c2ccc([N+](=O)[O-])cc2[N+](=O)[O-])C1=O (stereo not drawn),> 100 µM (inactive),> 100 µM (inactive),> 100 µM (inactive),> 100 µM (inactive),> 100 µM (inactive),> 100 µM (inactive),,> 100 µM (inactive),80.4 µM (inactive),> 100 µM (inactive),> 100 µM (inactive),> 100 µM (inactive),> 100 µM (inactive),> 100 µM (inactive),> 100 µM (inactive),1.96 µM (inactive),> 100 µM (inactive),> 100 µM (inactive),> 100 µM (inactive),
